Data on two compounds can be found in patent US20160135455A1, “SAFENED HERBICIDAL COMPOSITIONS COMPRISING PYRIDINE CARBOXYLIC ACIDS” (Dow AgroSciences LLC, priority 2014, published 2016).

Where two headings read alike, the source gives them in different places.

Type in all cases: in vivo
Data set [1] relates to lambsquarters (CHEAL, Chenopodium album). The data set is described as follows: Postemergence greenhouse trial, herbicidal efficacy on lambsquarters. The following applies: post-emergence, 528 h. As for the experimental part: (§1) Seeds of the desired test plant species were planted in Sun Gro MetroMix® 306 planting mixture, which typically has a pH of 6.0 to 6.8 and an organic matter content of about 30 percent, in plastic pots with a surface area of 103.2 square centimeters (cm^2). When required to ensure good germination and healthy plants, a fungicide treatment and/or other chemical or physical treatment was applied. The plants were grown for 7-36 days (d) in a greenhouse with an approximate 14-hour (h) photoperiod which was maintained at about 23° C. during the day and 22° C. during the night. Nutrients and water were added on a regular basis and supplemental lighting was provided with overhead metal halide 1000-Watt lamps as necessary. The plants were employed for testing when they reached the second or third true leaf stage.
(§2) Weighed amounts of technical material were dissolved in a volume of 97:3 volume per volume (v/v) acetone/dimethyl sulfoxide (DMSO) to stock solutions. […] The concentrated stock solutions were diluted with an aqueous mixture of 1.5% v/v of Agri-dex crop oil concentrate to provide the appropriate application rates. Compound requirements are based upon a 12 milliliter (mL) application volume at a rate of 187 liters per hectare (L/ha). Stocks solutions of the safeners were prepared following the same procedure. Spray solutions of the safeners and experimental compound mixtures were prepared by adding the stock solutions to the appropriate amount of dilution solution to form a 12 mL spray solution in two-way combinations. Formulated compounds were applied to the plant material with an overhead Mandel track sprayer equipped with 8002E nozzles calibrated to deliver 187 L/ha over an application area of 0.503 square meters (m^2) at a spray height of 18 inches (43 centimeters (cm)) above average plant canopy. Control plants were sprayed in the same manner with the solvent blank. All herbicide application (component a) rates are in g ae/ha and all safener (component b) rates are in g ai/ha.
(§3) The treated plants and control plants were placed in a greenhouse as described above and watered by sub-irrigation to prevent wash-off of the test compounds. After 20-22 d, the condition of the test plants as compared with that of the control plants was determined visually and scored on a scale of 0 to 100 percent where 0 corresponds to no injury and 100 corresponds to complete kill. The condition of the test plants was compared with that of the control plants as determined visually and scored on a scale of 0 to 100 percent, where 0 corresponds to no injury and 100 corresponds to complete kill. Colby's equation was used to determine the herbicidal effects expected from the mixtures.

Data set [2] deals with poinsettia (EPHHL, Euphorbia heterophylla). Description: Postemergence greenhouse trial, herbicidal efficacy on poinsettia. To be noted: Euphorbia heterophylla, post-emergence, 528 h, read-out: % visual injury, Obs, EPHHL. On the procedure:
as §1, §2, §3

In data set [3] the test system is velvetleaf (ABUTH, Abutilon theophrasti). The data set is described as follows: Postemergence greenhouse trial, herbicidal efficacy on velvetleaf. To be noted: post-emergence, 528 h. As for the experimental part: as §1, §2, §3
The subject of data set [4] is giant foxtail (SETFA, Setaria faberi). The data set is described as follows: Postemergence greenhouse trial, herbicidal efficacy on giant foxtail. To be noted: applied alone at 35 g/ha; for % visual injury, Obs, SETFA: rated after 20-22 d; for Obs, % visual injury, SETFA: scored 20-22 d. On the procedure: as §1, §2, §3
Data set [5] relates to pigweed (AMARE, Amaranthus retroflexus). Description: Postemergence greenhouse trial, herbicidal efficacy on pigweed. The following applies: post-emergence, 528 h. As for the experimental part: as §1, §2, §3
In data set [6] the test system is wild buckwheat (POLCO, Polygonum convolvulus). Description: Postemergence greenhouse trial, herbicidal efficacy on wild buckwheat. To be noted: Fallopia convolvulus, post-emergence, 528 h. As for the experimental part:
as §1, §2, §3

For data set [7], the system named is wheat (TRZAS), Triticum aestivum (spring wheat). The data set is described as follows: Postemergence greenhouse trial, crop injury (phytotoxicity/safening) on wheat. The following applies: applied alone at 35 g/ha, scored 20-22 d, 0 = no injury, 100 = complete kill. On the procedure:
as §1, §2, §3
(§4) The safener fenchlorazole-ethyl was combined with compound 1, compound 2, compound 3, compound 4, compound 5, and compound 6, and applied to wheat (TRZAS), and the phytotoxicity of the herbicidal compositions was measured. In addition, the efficacy of the herbicidal composition on velvetleaf (ABUTH, Abutilon theophrasti), pigweed (AMARE, Amaranthus retroflexus), winter rape (BRSNW, Brassica napus), lambsquarters (CHEAL, Chenopodium album), thistle (CIRAR, Cirsium arvense), nutsedge (CYPES, Cyperus esculentus), poinsettia (EPHHL, Euphorbia heterophylla), wild buckwheat (POLCO, Polygonum convolvulus), giant foxtail (SETFA, Setaria faberi), sorghum (SORVU, Sorghum bicolor), chickweed (STEME, Stellaria media), and wild pansy (VIOTR, Viola tricolor) was evaluated.
The safener isoxadifen-ethyl was combined with compound 1, compound 2, compound 3, compound 4, compound 5, and compound 6, and applied to wheat (TRZAS), and the phytotoxicity of the herbicidal compositions was measured. […]

The test system of data set [8] is winter rape (BRSNW, Brassica napus). The data set is described as follows: Postemergence greenhouse trial, herbicidal efficacy on winter rape. To be noted: post-emergence, 528 h. On the procedure:
as §1, §2, §3

The test system of data set [9] is wild pansy (VIOTR, Viola tricolor). The data set is described as follows: Postemergence greenhouse trial, herbicidal efficacy on wild pansy. The following applies: for pest or weed control at 35 g/ha: Viola tricolor, post-emergence, 528 h, read-out: Obs, % visual injury, VIOTR; for % visual injury, Obs, VIOTR: rated after 20-22 d. As for the experimental part:
as §1, §2, §3

Data set [10] concerns thistle (CIRAR, Cirsium arvense). The data set is described as follows: Postemergence greenhouse trial, herbicidal efficacy on thistle. The following applies: post-emergence, 528 h. As for the experimental part: as §1, §2, §3
The test system of data set [11] is corn/maize (ZEAMX), Zea mays. The data set is described as follows: Postemergence greenhouse trial, crop injury (phytotoxicity/safening) on corn/maize. To be noted: applied alone at 35 g/ha, rated after 20-22 d. As for the experimental part:
as §1
as §2, with “All herbicide application (component a) rates are in g ae/ha and all safener (component b) rates are in g ai/ha.” left out
as §3, with “Colby's equation was used to determine the herbicidal effects expected from the mixtures.” left out
as §4, with “compound” for “compound 3, compound 4, compound”, “corn/maize (ZEAMX)” for “wheat (TRZAS),”, “bicolor), and” for “bicolor),”, “media)” for “media), and wild pansy (VIOTR, Viola tricolor)”
The safener mefenpyr-diethyl was combined with compound 1, compound 2, and compound 5, and applied to corn/maize (ZEAMX) and the phytotoxicity of the herbicidal compositions were measured. […]

Data set [12] concerns chickweed (STEME, Stellaria media). The data set is described as follows: Postemergence greenhouse trial, herbicidal efficacy on chickweed. The following applies: post-emergence, 528 h. On the procedure: as §1, §2, §3
In data set [13] the test system is sorghum (SORVU, Sorghum bicolor). The data set is described as follows: Postemergence greenhouse trial, herbicidal efficacy on sorghum. To be noted: applied alone at 35 g/ha, rated after 20-22 d. On the procedure: as §1, §2, §3
The mark [14] stands for this setting: applied alone at 35 g/ha, postemergence.

Take `COCC(=O)n1ccc2ccc(-c3nc(C(=O)OC)c(Cl)c(N)c3F)c(F)c21` [compound 6]: the pest or weed control at 35 g/ha in [1] (applied alone at 35 g/ha, postemergence, rated after 20-22 d, read-out: % visual injury, Obs, CHEAL) worked out at 100%; in data set [1] (applied alone at 35 g/ha, postemergence, scored 20-22 d, read-out: Obs, % visual injury, CHEAL), 100%; in [2] (applied alone at 35 g/ha, postemergence, rated after 20-22 d) it was 100%; in data set [3] (applied alone at 35 g/ha, postemergence, rated after 20-22 d, read-out: % visual injury, Obs, ABUTH), 80%; in [3] (applied alone at 35 g/ha, postemergence, scored 20-22 d, read-out: Obs, % visual injury, ABUTH), 80%; in data set [5] (applied alone at 35 g/ha, postemergence, rated after 20-22 d, read-out: % visual injury, Obs, AMARE), 100%. For the same compound, the pest or weed control at 35 g/ha in [5] (applied alone at 35 g/ha, postemergence, scored 20-22 d, read-out: Obs, % visual injury, AMARE) was 100%; in data set [6] (applied alone at 35 g/ha, postemergence, rated after 20-22 d, read-out: % visual injury, Obs, POLCO) it was 97%; in data set [6] (applied alone at 35 g/ha, postemergence, scored 20-22 d, read-out: Obs, % visual injury, POLCO) it was 97%; in data set [9] (applied alone at 35 g/ha, postemergence, scored 20-22 d) it was 30%; in data set [10] (applied alone at 35 g/ha, postemergence, rated after 20-22 d, read-out: % visual injury, Obs, CIRAR), 75%; in [10] (applied alone at 35 g/ha, postemergence, scored 20-22 d, read-out: Obs, % visual injury, CIRAR), 75%. Further, the pest or weed control at 35 g/ha in data set [12] (applied alone at 35 g/ha, postemergence, rated after 20-22 d, read-out: % visual injury, Obs, STEME) stood at 97%; in [12] (applied alone at 35 g/ha, postemergence, scored 20-22 d, read-out: Obs, % visual injury, STEME) it was 97%. The “% visual injury, Obs, SETFA” value in data set [4] is on record as 10%. Besides, the “Obs, % visual injury, SETFA” value in [4] is 10%. For the same compound, the “Obs, % visual injury, TRZAS” value in data set [7] amounted to 35%. For the same compound, the plant injury at 35 g/ha was 75% in data set [8] (applied alone at 35 g/ha, postemergence, rated after 20-22 d, read-out: % visual injury, Obs, BRSNW) and 75% in [8] (applied alone at 35 g/ha, postemergence, scored 20-22 d, read-out: Obs, % visual injury, BRSNW). Moreover, the “% visual injury, Obs, VIOTR” value in [9] (setting [14]) stood at 30%. Besides, in data set [11], the “% visual injury, Obs, ZEAMX” value was found to be 25%. Besides, the “% visual injury, Obs, SORVU” value in [13] worked out at 70%.

With `CCOC(=O)C1=NOC(c2ccccc2)(c2ccccc2)C1` [isoxadifen-ethyl, reference compound], the pest or weed control at 35 g/ha in data set [1] (read-out: % visual injury, Obs, CHEAL) was determined as 0%; in data set [1] (read-out: Obs, % visual injury, CHEAL) it was 0%; in data set [2], 0%; in [3] (read-out: % visual injury, Obs, ABUTH), 0%; in data set [3] (read-out: Obs, % visual injury, ABUTH), 0%; in data set [5] (read-out: % visual injury, Obs, AMARE), 0%. Further, the pest or weed control at 35 g/ha in data set [5] (read-out: Obs, % visual injury, AMARE) amounted to 0%; in data set [6] (read-out: % visual injury, Obs, POLCO) it was 0%; in data set [6] (read-out: Obs, % visual injury, POLCO), 0%; in data set [9], 0%; in data set [10] (read-out: % visual injury, Obs, CIRAR), 0%; in [10] (read-out: Obs, % visual injury, CIRAR), 0%. For the same compound, the pest or weed control at 35 g/ha was determined as 0% in data set [12] (read-out: % visual injury, Obs, STEME) and 0% in data set [12] (read-out: Obs, % visual injury, STEME). In addition, the “% visual injury, Obs, SETFA” value in [4] is on record as 0%. Moreover, the “Obs, % visual injury, SETFA” value in data set [4] turned out to be 0%. For the same compound, the “Obs, % visual injury, TRZAS” value in data set [7] was found to be 0%. Further, the plant injury at 35 g/ha stood at 0% in data set [8] (read-out: % visual injury, Obs, BRSNW) and 0% in [8] (read-out: Obs, % visual injury, BRSNW). For the same compound, the “% visual injury, Obs, VIOTR” value in data set [9] (setting [14]) worked out at 0%. In addition, in [11], the “% visual injury, Obs, ZEAMX” value was determined as 0%.
